Target: Cytochrome P450 CYP3A4 (Homo sapiens, UniProt P08684)
Assay: UV-VIS spectral titration
Type: binding

Sequence of Cytochrome P450 CYP3A4 (P08684 whole entry): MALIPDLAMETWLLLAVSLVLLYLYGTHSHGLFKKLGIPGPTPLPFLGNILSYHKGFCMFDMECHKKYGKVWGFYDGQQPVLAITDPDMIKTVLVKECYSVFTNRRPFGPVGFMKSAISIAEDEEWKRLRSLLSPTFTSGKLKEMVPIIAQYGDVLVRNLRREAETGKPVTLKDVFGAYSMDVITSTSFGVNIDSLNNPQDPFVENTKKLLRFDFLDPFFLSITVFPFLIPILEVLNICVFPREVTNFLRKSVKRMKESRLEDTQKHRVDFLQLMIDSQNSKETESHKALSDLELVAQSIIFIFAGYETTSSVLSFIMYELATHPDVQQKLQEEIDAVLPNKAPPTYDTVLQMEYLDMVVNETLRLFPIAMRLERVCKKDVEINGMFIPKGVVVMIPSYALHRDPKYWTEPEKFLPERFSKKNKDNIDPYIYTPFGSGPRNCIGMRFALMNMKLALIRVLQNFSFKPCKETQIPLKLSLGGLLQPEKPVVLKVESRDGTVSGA

| SMILES | Kd [µM] |
| --- | --- |
| C[C@]12CC[C@H]3[C@@H]([C@H](C/C=C\C[C@@H]4CC5=CC(=O)CC[C@]5(C)[C@H]5CC[C@]6(C)[C@@H](O)CC[C@H]6[C@H]45)CC4=CC(=O)CC[C@@]43C)[C@@H]1CC[C@@H]2O [cis-TST2] | 0.3 |
| C[C@]12CC[C@H]3[C@@H]([C@H](C/C=C/C[C@@H]4CC5=CC(=O)CC[C@]5(C)[C@H]5CC[C@]6(C)[C@@H](O)CC[C@H]6[C@H]45)CC4=CC(=O)CC[C@@]43C)[C@@H]1CC[C@@H]2O [trans-TST2] | 8 |

Source: paper PMC4887402 (Journal of inorganic biochemistry, 2015)
